≈ marks a conversion by molar mass, not a printed value. Where “and” joins values, the source holds several entries; their conditions need not be identical. Equal entries are not always repeated. Where two headings read alike, the source gives them in different places.
Legend:
B16 melanoma cells [1] = experiment: cell apoptosis rate, AnnexinV-FITC flow cytometry; type: cell-based; conditions: 72 h
Description: (§1) To determine the safety of the various compounds, after treatment with the test compounds cell viability was determined by using MTT colorimetric assay and cell apoptosis rate by using AnnexinV-FITC apoptosis analysis kit (Tianjin Sungene Biotech Co., Ltd). 1 × 10^6 cells were added to individual wells of a 24-well plate. […] Cell viability was determined in a colorimetric assay using mitochondrial dehydrogenase activity in active mitochondria to form purple formazan. Apoptosis rate in a fluorochrome assay using flow cytometry (BD, USA).

B16 melanoma cells [2] = experiment: cellular melanin content in B16 melanoma cells; type: cell-based; conditions: 100-400 μM, 72 h
Description: For melanin content, the cells were treated with test compounds or kojic acid in the presence or absence of α-MSH as described above. The cells were washed with PBS and lyzed with 800 μL of 1 N NaOH (Sigma, USA) containing 10% DMSO for 1 h at 80°C. The absorbance at 400 nm was measured. The melanin content was determined from a standard curve prepared from an authentic standard of synthetic melanin (Sigma, USA).

[3] = target: T1, tyrosinase in B16 melanoma cells (Mus musculus, UniProt P11344); experiment: kinetic analysis of tyrosinase activity inhibition, B16 lysate protein, L-DOPA substrate, Lineweaver-Burk plot; type: biochemical; conditions: read-out: AC50, negative inhibition (acceleration) effect on tyrosinase
T1 construct: Each well of a 96-well plate contained 40 μg of lysate protein; endogenous in cells; host or cells: B16 melanoma cells (lysate)
T1 sequence (P11344 19-533): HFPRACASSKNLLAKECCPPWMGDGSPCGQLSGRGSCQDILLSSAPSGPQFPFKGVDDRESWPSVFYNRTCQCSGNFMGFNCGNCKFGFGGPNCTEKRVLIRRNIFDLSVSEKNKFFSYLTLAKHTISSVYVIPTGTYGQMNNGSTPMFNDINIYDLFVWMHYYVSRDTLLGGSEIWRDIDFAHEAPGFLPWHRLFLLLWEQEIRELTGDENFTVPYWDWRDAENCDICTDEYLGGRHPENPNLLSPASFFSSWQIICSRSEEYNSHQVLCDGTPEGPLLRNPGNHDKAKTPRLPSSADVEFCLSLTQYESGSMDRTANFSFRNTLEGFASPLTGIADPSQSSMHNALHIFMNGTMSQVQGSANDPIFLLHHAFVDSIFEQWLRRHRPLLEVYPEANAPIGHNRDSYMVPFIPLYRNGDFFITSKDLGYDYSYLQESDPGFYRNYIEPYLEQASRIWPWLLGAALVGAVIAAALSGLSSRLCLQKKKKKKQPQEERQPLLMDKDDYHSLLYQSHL

[4] = tested on: cellular tyrosinase in B16 melanoma cells; experiment: cellular tyrosinase activity in B16 melanoma cells; type: cell-based; conditions: for effect on cellular tyrosinase activity: 100-400 μM; for inhibition at 400 µM: Mus musculus, read-out: inhibition on cellular tyrosinase activity
[5] = cell viability, MTT colorimetric assay; type: cell-based; conditions: mouse
Description: as §1

B16 melanoma cells [6] = experiment: cell viability, MTT colorimetric assay; type: cell-based; conditions: for cytotoxic effect: 100, 200, 400 μM, as a whole; for reduction of viable cells: at the higher doses; for cytotoxic activity (reduction of viable cells): dose of 100 μM
Description: as §1

[7] = target: T1, tyrosinase in B16 melanoma cells; experiment: kinetic analysis of tyrosinase activity inhibition, B16 lysate protein, L-DOPA substrate, Lineweaver-Burk plot; type: biochemical; conditions: for K IS (inhibition constant) / mode of inhibition: L-DOPA substrate; for K IS (inhibition constant): from intercept of Lineweaver-Burk plots; for mode of inhibition: Lineweaver-Burk plot
Description: The cells were treated with test compounds as described above for the determination of tyrosinase activity. […] After incubation at 37°C for 30 min, the absorbance was measured at 475 nm. The inhibition constants for compounds and inhibition type were calculated using Lineweaver-Burk plot. The Lineweaver-Burk plot was widely used to determine important terms in enzyme kinetics, such as K m and V max. The plot provided a useful graphical method for analysis of the Michaelis-Menten equation: V = V max [S]/(K m + [S]). It took the reciprocal gave Lineweaver-Burk plot: 1/V = (K m + [S])/V max [S] = ((K m/V max)(1/ [S])) + (1/V max), where V is the reaction velocity (the reaction rate), K m is the Michaelis-Menten constant, V max is the maximum reaction velocity, and [S] is the substrate concentration. The y-intercept of such a graph was equivalent to the inverse of V max; the x-intercept of the graph represents −1/K m. It also gave a quick, visual impression of the different forms of enzyme inhibition. The inhibition constant (K I or K IS) was generated from the slope of the apparent […]/V max or 1/V max versus the concentrations of compounds.

Mushroom tyrosinase = experiment: cell-free mushroom tyrosinase assay of fractions (L-Tyr substrate); type: biochemical; conditions: L-Tyr as substrate, fractions at 0-12 μg/mL
Description: Mushroom tyrosinase and L-Tyr were reconstituted in 50 mM Na2HPO4-NaH2PO4 buffer (pH 6.8) at 1000 U/mL and 2.5 mM, respectively. A mixture of 60 μL of 50 mM Na2HPO4-NaH2PO4 buffer (pH 6.8) and 100 μL L-Tyr was designated as solution 1 (control group). […] Solutions 1 and 2 were added to 40 μL tyrosinase for 6 min reaction time at 37°C, individually. Absorbance of the resulting solutions was recorded every min by Beckman TU-1810 spectrophotometer at 475 nm. One unit of tyrosinase activity was arbitrarily defined as a rate of increase of 1 absorbance unit per min in the initial linear region of a plot of absorbance against time. The tyrosinase activity determined by the increasing absorbance at 475 nm accompanying by the oxidation of the substrates was calculated as the following formula [20]: (1) Tyrosinase activity %=A2/A1×100, where A1 is absorbance at 475 nm with solutions 1 and tyrosinase and A2 is absorbance at 475 nm with solutions 2 and tyrosinase.

[8] = 100 μM, control set as 0% (mean ± SD)
[9] = 200 μM, control set as 0% (mean ± SD)
[10] = 400 μM, control set as 0% (mean ± SD)
[11] = α-MSH-stimulated (100 μM α-MSH)
[12] = α-MSH-stimulated (100 μM α-MSH), 72 h
[13] = B16 melanoma cells, 100 μM, 72 h, percentage of controls (mean ± SD), read-out: Cell viability
[14] = B16 melanoma cells, 200 μM, 72 h, percentage of controls (mean ± SD), read-out: Cell viability
[15] = B16 melanoma cells, 400 μM, 72 h, percentage of controls (mean ± SD), read-out: Cell viability
[16] = absence of α-MSH stimulation, 72 h
[17] = 100 μM, 72 h, percentage of controls (mean ± SD), read-out: Cell viability
[18] = 200 μM, 72 h, percentage of controls (mean ± SD), read-out: Cell viability
[19] = 400 μM, 72 h, percentage of controls (mean ± SD), read-out: Cell viability

| SMILES | Apoptosis rate (B16 melanoma cells [1]; [8]) | Apoptosis rate (B16 melanoma cells [1]; [9]) | Apoptosis rate (B16 melanoma cells [1]; [10]) | effect on cellular melanin content (B16 melanoma cells [2]; absence of α-MSH stimulation) | effect on cellular melanin content (B16 melanoma cells [2]; [11]) | effect on cellular tyrosinase activity [4, 12] | viability at 72 h, 100 µM [5, 13] [%] | viability at 72 h, 200 µM [5, 14] [%] | viability at 72 h, 400 µM [5, 15] [%] | cytotoxic effect (B16 melanoma cells [6]) | effect on cellular tyrosinase activity [4, 16] | also measured |
| --- | --- | --- | --- | --- | --- | --- | --- | --- | --- | --- | --- | --- |
| CC(C)=CCC[C@@H](C)[C@H]1CC[C@@]2(C)C3=C(CC[C@]12C)[C@@]1(C)CC[C@H](O)C(C)(C)[C@@H]1CC3 [Fb-b, lanoserol] | 0.31 ± 4.37∗∗∗ % | 2.62 ± 3.33∗∗∗ % | 5.12 ± 2.35∗ % | significantly increased melanin content and cellular tyrosinase activity | significantly increased melanin content and cellular tyrosinase activity | significantly increased melanin content and cellular tyrosinase activity | 100 ± 2.56 | 96.3 ± 2.61 | 94.6 ± 3.03 | a little or no cytotoxic effect | – | AC50 [3]: 8.43 µM; increase of cellular tyrosinase activity ([4]; 400 μM, 72 h, absence of α-MSH): 18.21% |
| CC(C)=CC[C@@H](O)[C@@H](C)[C@H]1CC[C@@]2(C)C3=C(CC[C@]12C)[C@@]1(C)CC[C@H](O)C(C)(C)[C@@H]1CC3 [Fb-a, inotodiol] | 3.91 ± 3.27% | 5.10 ± 2.61∗ % | 6.07 ± 3.53∗∗ % | significantly increased melanin content and cellular tyrosinase activity | significantly increased melanin content and cellular tyrosinase activity | significantly increased melanin content and cellular tyrosinase activity | 99.3 ± 1.53 | 99.4 ± 1.41 | 98.2 ± 1.35 | a little or no cytotoxic effect | – | AC50 [7]: 9.74 µM; increase of cellular tyrosinase activity ([4]; 400 μM, 72 h, absence of α-MSH): 21.24% |
| CC(C(O)CCC(C)(C)O)[C@H]1CC[C@@]2(C)C3=C(CC[C@]12C)[C@@]1(C)CC[C@H](O)C(C)(C)[C@@H]1CC3 (stereo partly drawn) [Fd-a, 3β,22,25-trihydroxy-lanosta-8-ene] | – | – | – | – | – | – | – | – | – | – | slight or no inhibition | Apoptosis rate (B16 melanoma cells [1]; mouse, 100 μM): 1.21 ± 2.31%; Apoptosis rate (B16 melanoma cells [1]; mouse, 200 μM): 2.15 ± 3.92%; viability at 72 h, 100 µM [5]: 96.7 ± 1.01%; viability at 72 h, 200 µM [5]: 97.1 ± 1.12%; viability at 72 h, 400 µM [5]: 85 ± 1.51% |
| O=C(O)c1cccnc1 [Fc-a, nicotinie acid] | 10.12% and 10.12 ± 1.14% | 25.44% and 25.44 ± 1.53∗∗∗ % | 30.51% and 30.51 ± 1.11∗∗∗ % | – | – | – | 73.5 ± 3.11 | 45.3 ± 2.56 | 40.5 ± 2.12 | highest cytotoxic effect in dose-dependent manner | slight or no inhibition | – |
| O=c1cc(CO)occ1O [kojic acid, Kojic acid, reference compound] | 9.45 ± 1.15% | 12.36 ± 1.19% | 15.05 ± 2.21% | reduced tyrosinase activity as well as melanin content | reduced tyrosinase activity as well as melanin content | reduced tyrosinase activity as well as melanin content | 92.4 ± 4.41 | 86.1 ± 2.12 | 70.9 ± 3.12 | – | reduced tyrosinase activity as well as melanin content | IC50, tyrosinase inhibitory activity (Mushroom tyrosinase): 5.23 mg/L (≈ 36.8 µM) |
| C=C(C)[C@@H]1CC[C@]2(CO)CC[C@]3(C)[C@H](CC[C@@H]4[C@@]5(C)CC[C@H](O)C(C)(C)[C@@H]5CC[C@]43C)[C@@H]12 [Fa-a, betulin] | 9.01 ± 2.21% | 12.21 ± 3.03% | 15.31 ± 2.90% | reduced cellular melanin content | reduced cellular melanin content | able to inhibit the increase in cellular tyrosinase activity | – | – | – | – | significantly reduced cellular tyrosinase activity | IC50 [7]: 5.13 µM; Ki [7]: 0.4 µM; K IS (inhibition constant) [7]: 0.4 µM; mode of inhibition [7]: noncompetitive inhibitor; mode of inhibition ([7]; listed as Betulin): noncompetitive inhibition; inhibition at 400 µM ([4]; B16, 400 μM, 72 h, absence of α-MSH): 30%; viability at 72 h, 100 µM [5, 17]: 88.3 ± 3.21%; viability at 72 h, 200 µM [5, 18]: 75.1 ± 2.65%; viability at 72 h, 400 µM [5, 19]: 65.3 ± 4.41%; reduction of viable cells (B16 melanoma cells [6]): 34.68%; cytotoxic activity (reduction of viable cells) (B16 melanoma cells [6]): 11.69% |
| CC(C)=CCC[C@@H](C(=O)O)[C@H]1CC[C@@]2(C)C3=C(CC[C@]12C)[C@@]1(C)CC[C@H](O)C(C)(C)[C@@H]1CC3 [Fa-b, trametenolic acid] | 5.11 ± 4.01% | 6.51 ± 3.31% | 10.09 ± 4.31% | reduced cellular melanin content | reduced cellular melanin content | able to inhibit the increase in cellular tyrosinase activity | – | – | – | – | significantly reduced cellular tyrosinase activity | IC50 [7]: 7.25 µM; Ki [7]: 0.9 µM; K IS (inhibition constant) [7]: 0.5 µM; mode of inhibition [7]: mixed inhibitor; mode of inhibition ([7]; listed as trametenolic acid): mixed inhibition; inhibition at 400 µM ([4]; B16, 72 h): 23%; viability at 72 h, 100 µM [5, 17]: 96.5 ± 3.08%; viability at 72 h, 200 µM [5, 18]: 85.3 ± 4.13%; viability at 72 h, 400 µM [5, 19]: 70 ± 2.05%; reduction of viable cells (B16 melanoma cells [6]): 29.98%; cytotoxic activity (reduction of viable cells) (B16 melanoma cells [6]): 4.55% |
